Experimental data reported in patent US11384381B2, “Reaction accelerating agent” (Kikkoman Corporation, priority 2016, dated 2022).

Key:
[1] = test system: cholesterol oxidase (CHO-CE); assay: Acceleration of cholesterol detection reaction with small amount of cholesterol oxidase (Example 13); format: biochemical; conditions: 0.04% (w/v) compound, 2.31 U/ml CHO-CE; for effect of accelerating cholesterol detection reaction: versus not added; for Degree of progression of reaction (%) after 7.5 minutes / Degree of progression of reaction (%) after 10 minutes: cholesterol detection reaction, ΔA/ΔA100%; for Degree of progression of reaction (%) after 7.5 minutes: 2.5 minutes after addition of second reagent, not added: 65; for Degree of progression of reaction (%) after 10 minutes: 5 minutes after addition of second reagent, not added: 88
Method: Next, in this Example, the degree of acceleration of cholesterol detection reaction by the compound of the present invention was determined using a small amount of cholesterol oxidase.
A reagent for cholesterol measurement having the following composition was prepared, and the measurement of cholesterol was carried out using Bio Majesty JCA-BM […] (manufactured by JEOL Ltd.).
32 μM cholesterol (manufactured by Wako Pure Chemical Industries, Ltd.)
5.0% (v/v) Triton X-100 (manufactured by Wako Pure Chemical Industries, Ltd.)
4.0% (w/v) sodium cholate (manufactured by Wako Pure Chemical Industries, Ltd.)
30 mM MOPS-NaOH buffer solution, pH 7.0
(§1) 10 U/ml peroxidase PEO-301 (Toyobo Co., Ltd.)
(§2) 0.023 mM 10-(carboxymethylaminocarbonyl)-3,7-bis(dimethylamino)phenothiazine sodium (DA-67, manufactured by Wako Pure Chemical Industries, Ltd.)
0.04% (w/v) of the compound of Comparative Example 2, any one compound of the present invention, or compound-free (Comparative Example 1) ion-exchange water as shown in Table 1
10 mM MOPS-NaOH buffer solution, pH 7.0
2.31 U/ml CHO-CE (manufactured by Kikkoman Biochemifa Company)
8 μl of the sample was added to 96 μl of the first reagent-E, and the mixture was incubated at 37° C. for 5 minutes. Then, 24 μl of the second reagent-J was added thereto, and the quantitative reaction of hydrogen peroxide resulting from the oxidation of cholesterol was allowed to progress at 37° C. for 5 minutes. The absorbance (A694 and A751) of the reaction solution for light at wavelengths of 694 nm and 751 nm was measured over time for 10 minutes after the mixing of the sample with the first reagent-E to determine the value of subtraction of A751 from A694, i.e., the value A694/751. Subsequently, ΔA was calculated by subtracting, from A694/751, the value of (104/128) times A694/751 4.8 minutes after the mixing of the sample with the first reagent-E. Incidentally, 5 minutes after the mixing of the sample with the first reagent-E represents the time immediately before the addition of the second reagent-J.
Next, ΔA calculated in this Example was divided by ΔA100% defined in Example 12 to calculate the degree of progression of cholesterol detection reaction. The degree of progression of cholesterol detection reaction 7.5 and 10 minutes after the mixing of the sample with the first reagent-E (in other words, 2.5 and 5 minutes after the addition of the second reagent-J) is shown in Table 10.

CFP-DH4 (A1cOX) = assay: HbA1c detection reaction completed with excess A1cOX (Example 4); format: biochemical; conditions: 0.04% (w/v) compound, 5.3 mg/ml CFP-DH4 (excess), blood cells 10.4% HbA1c, pH 6.5, 37° C.; for ΔA9 min: change in A694-A751 9 minutes after mixing sample with first reagent; for ΔA10 min: change in A694-A751 10 minutes after mixing sample with first reagent, defined as ΔA100%
Method: In this Example, the amount of change in absorbance when an excess amount of A1cOX is used and HbA1c detection reaction was completed is determined.
A reagent for HbA1c measurement having the following composition was prepared, and the measurement of HbA1c was carried out using Bio Majesty JCA-BMI650 (manufactured by JEOL Ltd.).
Blood cells (10.4% HbA1c (NGSP value))
30 mM MOPS-NaOH buffer solution, pH 6.5
0.2% (w/v) n-dodecyl-β-D-maltoside (manufactured by Dojindo Laboratories)
as §1, §2
0.04% (w/v) of the compound of Comparative Example 2 (Wako Pure Chemical Industries, Ltd.), any one compound of the present invention (all from Tokyo Chemical Industry Co., Ltd. except for Acid Yellow 34 from MP Biomedicals, LLC), or compound-free (Comparative Example 1) ion-exchange water as shown in Table 1 (Second Reagent-A) 10 mM MOPS-NaOH buffer solution, pH 6.5 5.3 mg/ml CFP-DH4 (A cOX)
8 μl of the sample diluted 51-fold with ion-exchange water was added to 96 μl of the first reagent-A, and the mixture was incubated at 37° C. for 5 minutes. Then, 24 μl of the second reagent-A was added thereto, and the quantitative reaction of hydrogen peroxide resulting from the oxidation of the β-chain amino terminus of HbA1c was allowed to progress at 37° C. for 5 minutes. The absorbance (A694 and A751) of the reaction solution for light at wavelengths of 694 nm and 751 nm was measured over time for 10 minutes after the mixing of the diluted sample with the first reagent-A to determine the value subtracting of A751 from A694, i.e., the value A694/751. Subsequently, ΔA was calculated by subtracting, from A694/751, the value of (104/128) times A694/751 4.8 minutes after mixing the diluted sample with the first reagent-A. Incidentally, 4.8 minutes after the mixing of the diluted sample with the first reagent-A represents the time immediately before the addition of the second reagent-A. ΔA 9 minutes and 10 minutes after the mixing of the diluted sample with the first reagent (ΔA9min and ΔA10min) are shown in Table 1.
In other words, it can be recognized that the quantitative reaction of HbA1c, i.e., the quantitative reaction of hydrogen peroxide resulting from the oxidation of HbA1c, was completed in 10 minutes after the mixing of the diluted sample with the first reagent-A. Accordingly, in Examples 4 and 5, ΔA10min in each Comparative Example or the present invention was defined as ΔA when 100% of the quantitative reaction of HbA1c progressed under each condition (ΔA100%).

| Compound | effect of accelerating cholesterol detection reaction [1] | Degree of progression of reaction (%) after 7.5 minutes [1] [%] | Degree of progression of reaction (%) after 10 minutes [1] [%] | ΔA9 min (CFP-DH4 (A1cOX)) | ΔA10 min (CFP-DH4 (A1cOX)) |
| --- | --- | --- | --- | --- | --- |
| Cc1nn(-c2cc(S(=O)(=O)[O-])ccc2Cl)c(O)c1N=Nc1ccccc1.[Na+] [Acid Yellow 34] | effect of accelerating cholesterol detection reaction | 72 | 92 | 0.011 | 0.011 |
| COc1cc(N=Nc2ccc(N)cc2)c(C)cc1N [Disperse Diazo Black 3BF] | effect of accelerating cholesterol detection reaction | 66 | 97 | – | – |
| O=C(O)c1cc(N=Nc2ccc3cc(S(=O)(=O)O)ccc3c2)ccc1O.[Na] [Chrome Yellow] | effect of accelerating cholesterol detection reaction | 67 | 91 | 0.024 | 0.024 |
| COc1cc(N=Nc2cccc(S(=O)(=O)[O-])c2)ccc1NC(=O)Nc1ccc(N=Nc2ccc(O)c(C(=O)[O-])c2)cc1.[Na+].[Na+] [Direct Yellow 44] | – | – | – | 0.017 | 0.017 |
| O=S(=O)([O-])c1cccc(N=Nc2ccc(Nc3ccccc3)cc2)c1.[Na+] [Acid Yellow 36] | effect of accelerating cholesterol detection reaction | 73 | 92 | 0.011 | 0.011 |
| Acid Red 151 | effect of accelerating cholesterol detection reaction | 74 | 94 | 0.014 | 0.014 |
| Xylene Fast Yellow 2G | – | – | – | 0.015 | 0.015 |
| O=C([O-])c1cc(N=Nc2ccc([N+](=O)[O-])cc2)ccc1O.[Na+] [Mordant Orange 1] | effect of accelerating cholesterol detection reaction | 74 | 94 | 0.016 | 0.016 |
| O=C([O-])c1cc(N=Nc2cccc([N+](=O)[O-])c2)ccc1O.[Na+] [Alizarin Yellow GG] | effect of accelerating cholesterol detection reaction | 73 | 93 | 0.016 | 0.016 |
